# Assay results from ChEMBL document CHEMBL3885861, “Open TG-GATES”.
# Species on record: Rattus norvegicus
# Experiment: Open TG-GATES - Regimen: Single
# Type: toxicity, organism-based, Sprague-Dawley
# Design: regimen Single, gender Male, age 6 weeks
# Settings: in vivo, po, 3 mg/kg, route gavage, dose level Middle; for APTT / Bas / Eos / Fbg / Hb / Ht / Lym / MCH / MCHC / MCV / Mono / Neu / PT / Plat / RBC / Ret / WBC: tissue Blood; for KIDNEY_L / KIDNEY_R / KIDNEY_TOTAL: tissue Kidney; for LIVER: tissue Liver; for A/G / ALP / ALT / AST / BUN / CRE / Ca / Cl / DBIL / GLC / IP / K / LDH / Na / PL / RALB / TBIL / TC / TG / TP / gamma-GTP: tissue Plasma
structure (smiles),measurement,setting,value
CN1C(C(=O)Nc2ccccn2)=C(O)c2sc(Cl)cc2S1(=O)=O [LORNOXICAM],TERMINAL_BW,3 h,224.5 g
same,APTT,3 h,20.3 s
same,Bas,3 h,0.6%
same,Eos,3 h,1%
same,Fbg,3 h,223.8 mg/dL
same,Hb,3 h,13.2 g/dL
same,Ht,3 h,40%
same,Lym,3 h,75.2%
same,MCH,3 h,21 pg
same,MCHC,3 h,32.9%
same,MCV,3 h,63.8 fL
same,Mono,3 h,3.4%
same,Neu,3 h,19.6%
same,PT,3 h,11.7 s
same,Plat,3 h,123.9 x10_4/uL
same,RBC,3 h,626.4 x10_4/ul
same,Ret,3 h,7.2%
same,WBC,3 h,135.4 x10_2/uL
same,KIDNEY_L,3 h,1 g
same,KIDNEY_R,3 h,1 g
same,KIDNEY_TOTAL,3 h,2 g
same,LIVER,3 h,10.3 g
same,A/G,3 h,1.6
same,ALP,3 h,1026.6 IU/L
same,ALT,3 h,45.4 IU/L
same,AST,3 h,81 IU/L
same,BUN,3 h,12.4 mg/dL
same,CRE,3 h,0.3 mg/dL
same,Ca,3 h,10.8 mg/dL
same,Cl,3 h,104 meq/L
same,DBIL,3 h,0.074 mg/dL
same,GLC,3 h,197 mg/dL
same,IP,3 h,9 mg/dL
same,K,3 h,4.1 meq/L
same,LDH,3 h,163.8 IU/L
same,Na,3 h,141.8 meq/L
same,PL,3 h,152.8 mg/dL
same,RALB,3 h,3.5 g/dL
same,TBIL,3 h,0.1 mg/dL
same,TC,3 h,82.4 mg/dL
same,TG,3 h,73.8 mg/dL
same,TP,3 h,5.7 g/dL
same,gamma-GTP,3 h,1 IU/L
same,TERMINAL_BW,6 h,222.9 g
same,APTT,6 h,18.9 s
same,Bas,6 h,0.6%
same,Eos,6 h,0.8%
same,Fbg,6 h,223.6 mg/dL
same,Hb,6 h,13.4 g/dL
same,Ht,6 h,40.2%
same,Lym,6 h,78.4%
same,MCH,6 h,21.3 pg
same,MCHC,6 h,33.4%
same,MCV,6 h,63.7 fL
same,Mono,6 h,3.4%
same,Neu,6 h,16.8%
same,PT,6 h,12.3 s
same,Plat,6 h,123.6 x10_4/uL
same,RBC,6 h,631.2 x10_4/ul
same,Ret,6 h,7.2%
same,WBC,6 h,108.8 x10_2/uL
same,KIDNEY_L,6 h,1 g
same,KIDNEY_R,6 h,1 g
same,KIDNEY_TOTAL,6 h,1.9 g
same,LIVER,6 h,10 g
same,A/G,6 h,1.7
same,ALP,6 h,948.8 IU/L
same,ALT,6 h,38.2 IU/L
same,AST,6 h,72.8 IU/L
same,BUN,6 h,11.8 mg/dL
same,CRE,6 h,0.4 mg/dL
same,Ca,6 h,10.6 mg/dL
same,Cl,6 h,104 meq/L
same,DBIL,6 h,0.074 mg/dL
same,GLC,6 h,193.6 mg/dL
same,IP,6 h,8.6 mg/dL
same,K,6 h,4.1 meq/L
same,LDH,6 h,159 IU/L
same,Na,6 h,140.6 meq/L
same,PL,6 h,134.8 mg/dL
same,RALB,6 h,3.5 g/dL
same,TBIL,6 h,0.2 mg/dL
same,TC,6 h,75 mg/dL
same,TG,6 h,64.4 mg/dL
same,TP,6 h,5.6 g/dL
same,gamma-GTP,6 h,0.8 IU/L
same,TERMINAL_BW,9 h,223.4 g
same,APTT,9 h,18.6 s
same,Bas,9 h,0.4%
same,Eos,9 h,0.8%
same,Fbg,9 h,220.2 mg/dL
same,Hb,9 h,13.2 g/dL
same,Ht,9 h,39.2%
same,Lym,9 h,71.2%
same,MCH,9 h,21.6 pg
same,MCHC,9 h,33.7%
same,MCV,9 h,64.1 fL
same,Mono,9 h,3.4%
same,Neu,9 h,24%
same,PT,9 h,12.2 s
same,Plat,9 h,120.6 x10_4/uL
same,RBC,9 h,611.6 x10_4/ul
same,Ret,9 h,6.8%
same,WBC,9 h,110.6 x10_2/uL
same,KIDNEY_L,9 h,1 g
same,KIDNEY_R,9 h,1 g
same,KIDNEY_TOTAL,9 h,2 g
same,LIVER,9 h,9.1 g
same,A/G,9 h,1.6
same,ALP,9 h,857.8 IU/L
same,ALT,9 h,41.2 IU/L
same,AST,9 h,69.8 IU/L
same,BUN,9 h,10.8 mg/dL
same,CRE,9 h,0.3 mg/dL
same,Ca,9 h,10.5 mg/dL
same,Cl,9 h,103.2 meq/L
same,DBIL,9 h,0.064 mg/dL
same,GLC,9 h,190 mg/dL
same,IP,9 h,9.7 mg/dL
same,K,9 h,4.1 meq/L
same,LDH,9 h,168.6 IU/L
same,Na,9 h,141.2 meq/L
same,PL,9 h,125.4 mg/dL
same,RALB,9 h,3.2 g/dL
same,TBIL,9 h,0.1 mg/dL
same,TC,9 h,66.2 mg/dL
same,TG,9 h,54.4 mg/dL
same,TP,9 h,5.3 g/dL
same,gamma-GTP,9 h,1 IU/L
same,TERMINAL_BW,24 h,235.4 g
same,APTT,24 h,20 s
same,Bas,24 h,0.2%
same,Eos,24 h,0.2%
same,Fbg,24 h,261.6 mg/dL
same,Hb,24 h,12.8 g/dL
same,Ht,24 h,39%
same,Lym,24 h,60.2%
same,MCH,24 h,20.8 pg
same,MCHC,24 h,32.9%
same,MCV,24 h,63.5 fL
same,Mono,24 h,3.8%
same,Neu,24 h,33.8%
same,PT,24 h,12.1 s
same,Plat,24 h,122.4 x10_4/uL
same,RBC,24 h,614.2 x10_4/ul
same,Ret,24 h,6.8%
same,WBC,24 h,136.9 x10_2/uL
same,KIDNEY_L,24 h,1 g
same,KIDNEY_R,24 h,1 g
same,KIDNEY_TOTAL,24 h,2.1 g
same,LIVER,24 h,11.4 g
same,A/G,24 h,1.5
same,ALP,24 h,892.2 IU/L
same,ALT,24 h,39.8 IU/L
same,AST,24 h,67.6 IU/L
same,BUN,24 h,13.2 mg/dL
same,CRE,24 h,0.4 mg/dL
same,Ca,24 h,10.5 mg/dL
same,Cl,24 h,104.8 meq/L
same,DBIL,24 h,0.078 mg/dL
same,GLC,24 h,203.8 mg/dL
same,IP,24 h,7.8 mg/dL
same,K,24 h,4.2 meq/L
same,LDH,24 h,207.8 IU/L
same,Na,24 h,141.8 meq/L
same,PL,24 h,133.2 mg/dL
same,RALB,24 h,3.1 g/dL
same,TBIL,24 h,0.1 mg/dL
same,TC,24 h,68.2 mg/dL
same,TG,24 h,74.4 mg/dL
same,TP,24 h,5.1 g/dL
same,gamma-GTP,24 h,0.8 IU/L
